# Results taken from US20120295965A1, “FUSED THIOPHENES AS DUAL INHIBITORS OF EGFR/VEGFR AND THEIR USE IN THE TREATMENT OF CANCER” (priority 2009, published 2012).
# How the values were obtained:
# NT response in HT29 = experiment: Epic label-free DMR biosensor cellular assay, neurotensin marker in HT29; format: cell-based, human
# Procedure: The NTS1 natural agonist neurotensin is known to activate the endogenous NTS1/NTS3 heterodimers in HT29 cells. […] Thus, neurotensin was chosen as an indirect marker for identifying potential EGFR inhibitors.
# (§1) All cell lines were obtained from American Type Cell Culture (Manassas, Va.). The cell culture medium was as follows: (1) Dulbecco's modified Eagle's medium (DMEM) supplemented with 10% fetal bovine serum (FBS), 4.5 g/liter glucose, 2 mM glutamine, and antibiotics for human epidermoid carcinoma A431; and (2) McCoy's 5a Medium Modified supplemented with 10% FBS, 4.5 g/liter glucose, 2 mM glutamine, and antibiotics for human colorectal adenocarcinoma HT29.
# (§2) Cells were typically grown using ˜1 to 2×10^4 cells per well at passage 3 to 15 suspended in 50 μl of the corresponding culture medium in the biosensor microplate, and were cultured at 37° C. under air/5% CO2 for ˜1 day. Except for A431 which underwent one day culture followed by one starvation in serum free medium, all other cells were directly assayed without starvation. The confluency for all cells at the time of assays was ˜95% to 100%.
# (§3) Epic® beta version wavelength interrogation system (Corning Inc., Corning, N.Y.) was used for whole cell sensing. This system consists of a temperature-control unit, an optical detection unit, and an on-board liquid handling unit with robotics. The detection unit is centered on integrated fiber optics, and enables kinetic measures of cellular responses with a time interval of ˜15 sec.
# (§4) To study the influence of molecules on a marker-induced response, a second stimulation with the marker at a fixed dose (typically at EC80 or EC100) was applied. The resonant wavelengths of all biosensors in the microplate were normalized again to establish a second baseline, right before the second stimulation. The two stimulations were usually separated by ˜1 hr.
# (§5) All studies were carried out at a controlled temperature (28° C.). At least two independent sets of experiments, each with at least three replicates, were performed.
# (§6) The DMR modulation index were generated against 4 markers across two distinct cell lines—the EGFR agonist EGF in A431 (EGF at 32 nM), and the EGFR agonist EGF in HT29 (EGF at 2 nM), the hERG activator mallotoxin (MTX) in HT29 (MTX at 16 micromlar), and the NTS1/NTS3 agonist neurotensin (NT) in HT29 (NT at 2 nM). The EGF responses in A431 cells include the early P-DMR event (˜5 min after EGF stimulation) and the subsequent N-DMR event (˜30 min after EGF stimulation). The EGF responses in HT29 include the early P-DMR event (˜5 min after EGF stimulation) and the late P-DMR event (˜50 min after EGF stimulation), whereas the mallotoxin response in HT29 is the P-DMR response 50 min after MTX stimulation, and the NT response in HT29 is the P-DMR 50 min after NT stimulation. In all cases, the amplitudes of respective DMR events were used as the basis to calculate the percentages of modulation by each inhibitor.
# EGF response in HT29 = experiment: Epic label-free DMR biosensor cellular assay, EGF marker in HT29; format: cell-based, human
# Procedure: as §1, §2, §3, §4, §5, §6
# [1] = test system: mallotoxin response in HT29; experiment: Epic label-free DMR biosensor cellular assay, hERG activator mallotoxin marker in HT29
# Procedure: HT29 expresses VEGFR1 (Flt1 receptor), but not other VEGF receptors.
# as §1
# as §2, with “starvation.” for “starvation. The confluency for all cells at the time of assays was ˜95% to 100%.”
# as §3
# For biosensor cellular assays, molecule solutions were made by diluting the stored concentrated solutions with the HBSS (1× Hanks balanced salt solution, plus 20 mM Hepes, pH 7.1), and transferred into a 384well polypropylene molecule storage plate to prepare a molecule source plate. Both molecule and marker source plates were made separately when a two-step assay was performed. In parallel, the cells were washed twice with the HBSS and maintained in 30 μl of the HBSS to prepare a cell assay plate. Both the cell assay plate and the molecule and marker source plate(s) were then incubated in the hotel of the reader system. After ˜1 hr of incubation the baseline wavelengths of all biosensors in the cell assay microplate were recorded and normalized to zero. Afterwards, a 2 to 10 minute continuous recording was carried out to establish a baseline, and to ensure that the cells reached a steady state. Cellular responses were then triggered by pipetting 10 μl of the marker solutions into the cell assay plate using the on-board liquid handler.
# as §4, §5, §6
# [2] = test system: EGF response in A431 cells; experiment: Epic label-free DMR biosensor cellular assay, EGF marker in A431; format: cell-based, human
# Procedure: as §1, §2, §3, §4, §5, §6
# VEGFR1 (FLT1) = target: T1, VEGFR1 (FLT1) (Homo sapiens, UniProt P17948); experiment: LanthaScreen TR-FRET kinase assay, VEGFR1 (FLT1); format: biochemical
# T1 construct: purchased Invitrogen
# T1 sequence (P17948 27-1338): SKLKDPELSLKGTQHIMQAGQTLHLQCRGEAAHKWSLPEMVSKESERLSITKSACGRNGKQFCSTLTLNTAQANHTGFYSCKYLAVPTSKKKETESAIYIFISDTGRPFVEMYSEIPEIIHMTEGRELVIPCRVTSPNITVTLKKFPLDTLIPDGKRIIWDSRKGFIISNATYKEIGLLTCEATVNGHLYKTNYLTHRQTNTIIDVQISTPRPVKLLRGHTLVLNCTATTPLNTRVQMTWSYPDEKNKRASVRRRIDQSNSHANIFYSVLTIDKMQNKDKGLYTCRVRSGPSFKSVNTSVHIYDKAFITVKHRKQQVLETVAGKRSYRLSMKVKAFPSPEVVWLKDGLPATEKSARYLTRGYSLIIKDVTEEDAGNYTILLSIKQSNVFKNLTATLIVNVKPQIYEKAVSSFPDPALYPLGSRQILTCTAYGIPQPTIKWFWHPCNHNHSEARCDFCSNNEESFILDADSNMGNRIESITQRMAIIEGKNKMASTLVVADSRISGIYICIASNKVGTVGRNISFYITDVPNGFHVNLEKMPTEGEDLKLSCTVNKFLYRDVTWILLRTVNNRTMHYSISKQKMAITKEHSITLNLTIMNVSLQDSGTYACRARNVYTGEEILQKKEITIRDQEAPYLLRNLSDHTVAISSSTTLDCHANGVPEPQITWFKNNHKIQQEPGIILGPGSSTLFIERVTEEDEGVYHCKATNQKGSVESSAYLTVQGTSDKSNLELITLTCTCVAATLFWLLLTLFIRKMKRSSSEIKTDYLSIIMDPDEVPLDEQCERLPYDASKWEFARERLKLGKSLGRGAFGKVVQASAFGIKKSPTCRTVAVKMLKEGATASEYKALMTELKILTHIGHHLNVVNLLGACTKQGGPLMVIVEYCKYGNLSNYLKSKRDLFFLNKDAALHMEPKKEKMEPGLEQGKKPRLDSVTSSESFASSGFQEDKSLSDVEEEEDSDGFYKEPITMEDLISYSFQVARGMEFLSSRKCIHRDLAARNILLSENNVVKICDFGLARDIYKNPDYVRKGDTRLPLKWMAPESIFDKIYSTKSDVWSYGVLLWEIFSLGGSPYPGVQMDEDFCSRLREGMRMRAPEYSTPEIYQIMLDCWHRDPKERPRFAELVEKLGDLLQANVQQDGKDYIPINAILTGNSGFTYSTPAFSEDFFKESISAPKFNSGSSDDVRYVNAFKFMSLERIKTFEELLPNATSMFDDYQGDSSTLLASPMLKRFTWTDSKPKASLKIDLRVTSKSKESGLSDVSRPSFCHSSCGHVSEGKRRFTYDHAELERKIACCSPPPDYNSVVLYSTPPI
# Procedure: (§7) LanthaScreen TR-FRET kinase assay reagents and the recombinant EGFR, VEGFR1 (FLT1), VEGFR2 (KDR) were purchased from Invitrogen. Known kinase inhibitors were used as positive controls.
# (§8) Each EGFR reaction contains 51 ng/ml kinase, 2.4 μM ATP and 0.2 μM substrate. […] Each VEGFR2 (KDR) reaction contains 4 ng/ml kinase, 13 μM ATP and 0.2 μM substrate. Kinase reactions are allowed to proceed for 1 hour at room temperature before a 10 μl preparation of EDTA (20 mM) and Tb-labeled antibody (4 nM) in TR-FRET dilution buffer are added. The final concentration of antibody in the assay well is 2 nM, and the final concentration of EDTA is 10 mM. The plate is allowed to incubate at room temperature for at least 30 minutes before being read on a Tecan SafireII plate reader configured for LanthaScreen™ TR-FRET (Excitation at 340 nm, emission at 495 nm and 520 nm). The final readout is the emission ratio 520 nm/495 nm. Each data point is the average of 4 replicates.
# VEGFR2 (KDR) = target: T2, VEGFR2 (KDR) (Homo sapiens, UniProt P35968); experiment: LanthaScreen TR-FRET kinase assay, VEGFR2 (KDR); format: biochemical; settings: for inhibition of FRET signal of VEGFR2 tyrosine kinase: compounds at 25 micromolar, FIG. 3
# T2 construct: purchased Invitrogen
# T2 sequence (P35968 20-1356): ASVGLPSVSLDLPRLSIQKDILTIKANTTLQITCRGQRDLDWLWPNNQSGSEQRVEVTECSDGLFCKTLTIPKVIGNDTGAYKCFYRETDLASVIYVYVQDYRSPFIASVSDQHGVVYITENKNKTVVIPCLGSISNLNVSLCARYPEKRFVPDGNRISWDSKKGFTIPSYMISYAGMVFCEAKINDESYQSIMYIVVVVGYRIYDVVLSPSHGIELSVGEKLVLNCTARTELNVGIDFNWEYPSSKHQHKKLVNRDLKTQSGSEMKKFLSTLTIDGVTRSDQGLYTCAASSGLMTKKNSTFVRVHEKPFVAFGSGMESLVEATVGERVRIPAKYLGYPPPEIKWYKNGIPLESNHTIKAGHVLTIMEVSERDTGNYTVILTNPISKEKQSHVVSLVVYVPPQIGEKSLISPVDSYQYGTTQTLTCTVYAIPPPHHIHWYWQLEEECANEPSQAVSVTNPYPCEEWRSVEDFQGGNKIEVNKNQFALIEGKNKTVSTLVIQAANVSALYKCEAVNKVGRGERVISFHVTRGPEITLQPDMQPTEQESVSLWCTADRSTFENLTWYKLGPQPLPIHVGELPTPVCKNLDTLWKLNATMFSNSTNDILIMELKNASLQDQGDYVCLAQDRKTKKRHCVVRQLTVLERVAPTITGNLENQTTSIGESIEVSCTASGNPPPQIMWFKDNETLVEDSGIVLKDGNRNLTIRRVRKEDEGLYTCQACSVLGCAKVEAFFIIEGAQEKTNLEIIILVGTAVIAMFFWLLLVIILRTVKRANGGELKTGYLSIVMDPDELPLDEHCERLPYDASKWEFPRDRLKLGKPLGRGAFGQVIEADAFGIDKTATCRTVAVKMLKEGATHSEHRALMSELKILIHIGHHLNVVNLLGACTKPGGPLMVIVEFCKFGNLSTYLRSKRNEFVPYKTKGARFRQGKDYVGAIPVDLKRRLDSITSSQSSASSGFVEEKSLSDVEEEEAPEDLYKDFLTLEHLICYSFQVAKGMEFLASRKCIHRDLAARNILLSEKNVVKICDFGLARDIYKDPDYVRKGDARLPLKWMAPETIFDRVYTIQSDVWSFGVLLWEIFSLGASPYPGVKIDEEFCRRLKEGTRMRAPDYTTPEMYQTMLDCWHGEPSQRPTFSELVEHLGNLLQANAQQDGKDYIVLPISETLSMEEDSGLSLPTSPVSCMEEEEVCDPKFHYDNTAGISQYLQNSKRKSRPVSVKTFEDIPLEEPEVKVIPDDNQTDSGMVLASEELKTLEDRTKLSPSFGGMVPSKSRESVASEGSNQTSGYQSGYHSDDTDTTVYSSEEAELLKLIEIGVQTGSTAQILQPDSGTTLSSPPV
# Procedure: as §7, §8
# EGFR [3] = target: T3, EGFR (Homo sapiens, UniProt P00533); experiment: LanthaScreen TR-FRET kinase assay, EGFR; format: biochemical; set-up: purchased Invitrogen; settings: compounds at 25 micromolar; FIG. 1
# T3 sequence (P00533 25-1210): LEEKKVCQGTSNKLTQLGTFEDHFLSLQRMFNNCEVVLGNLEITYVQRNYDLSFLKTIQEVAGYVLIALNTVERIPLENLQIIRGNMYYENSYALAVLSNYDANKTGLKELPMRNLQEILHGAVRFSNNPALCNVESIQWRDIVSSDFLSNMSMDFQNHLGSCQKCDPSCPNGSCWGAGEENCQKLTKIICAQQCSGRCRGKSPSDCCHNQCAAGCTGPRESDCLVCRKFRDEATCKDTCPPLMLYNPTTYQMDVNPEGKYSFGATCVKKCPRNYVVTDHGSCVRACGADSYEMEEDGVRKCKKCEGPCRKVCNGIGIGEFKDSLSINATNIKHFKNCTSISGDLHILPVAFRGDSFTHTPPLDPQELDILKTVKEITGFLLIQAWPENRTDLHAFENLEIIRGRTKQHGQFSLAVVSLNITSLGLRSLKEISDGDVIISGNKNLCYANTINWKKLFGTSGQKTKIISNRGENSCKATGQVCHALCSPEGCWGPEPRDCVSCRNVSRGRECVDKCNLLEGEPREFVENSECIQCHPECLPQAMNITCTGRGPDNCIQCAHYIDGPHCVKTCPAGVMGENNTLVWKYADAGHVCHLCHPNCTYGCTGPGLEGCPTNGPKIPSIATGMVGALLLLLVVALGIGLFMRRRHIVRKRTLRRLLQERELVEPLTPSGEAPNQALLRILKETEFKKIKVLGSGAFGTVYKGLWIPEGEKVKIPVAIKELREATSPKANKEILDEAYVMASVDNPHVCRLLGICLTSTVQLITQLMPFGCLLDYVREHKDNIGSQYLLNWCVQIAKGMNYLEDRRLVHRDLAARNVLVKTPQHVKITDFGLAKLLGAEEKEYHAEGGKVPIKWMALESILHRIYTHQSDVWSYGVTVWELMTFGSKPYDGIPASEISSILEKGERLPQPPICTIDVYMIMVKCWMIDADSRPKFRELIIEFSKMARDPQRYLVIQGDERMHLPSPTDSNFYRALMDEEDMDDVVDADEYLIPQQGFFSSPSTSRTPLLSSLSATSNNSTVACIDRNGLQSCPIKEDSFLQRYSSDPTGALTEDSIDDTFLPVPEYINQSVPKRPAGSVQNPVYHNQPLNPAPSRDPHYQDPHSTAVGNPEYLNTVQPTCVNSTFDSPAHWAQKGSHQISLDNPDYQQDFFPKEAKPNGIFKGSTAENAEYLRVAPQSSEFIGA
# EGFR [4] = target: T3, EGFR; settings: known inhibitors; cited from earlier work
# HT29 cells = settings: up to 100 nM; un-starved HT29 cells; data not shown
# [5] = compounds at 25 micromolar, FIG. 2
compound,measurement,setting,value
"c1ccc(-c2cnc(Nc3ccc(OCCN4CCCC4)cc3)s2)cc1 [Flt3 inhibitor III, (5-Phenyl-thiazol-2-yl)-(4-(2-pyrrolidin-1-yl-ethoxy)-phenyl)-amine]",impact on DMR signal of NT in HT29,NT response in HT29; NT at 2 nM,little impact
same,impact on DMR signal of EGF in HT29,EGF response in HT29; EGF at 2 nM,little impact
same,impact on DMR signal of MTX in HT29,[1]; MTX at 16 micromolar,little impact
same,impact on DMR signal of EGF in A431,[2]; EGF at 32 nM,little impact
"CCCCCCc1csc2cc(C(=O)O)sc12 [Compound H, 6-hexyl-thieno[3,2-b]thiophene-2-carboxylic acid]",inhibition of FRET signal of VEGFR1 tyrosine kinase,VEGFR1 (FLT1); [5],less potent than the others
same,inhibition of FRET signal of VEGFR2 tyrosine kinase,VEGFR2 (KDR),less potent than the others
same,inhibition of FRET signal of EGFR tyrosine kinase,EGFR [3],less potent than the others
"CCOC(=O)c1c(C)[nH]c(/C=C2\C(=O)Nc3ccccc32)c1C [VEGFR2 tyrosine kinase inhibitor I, (Z)-3-[(2,4-Dimethyl-3-(ethoxycarbonyl)pyrrol-5-yl)methylidenyl]indolin-2-one]",impact on DMR signal of NT in HT29,NT response in HT29; NT at 2 nM,little impact
same,impact on DMR signal of EGF in HT29,EGF response in HT29; EGF at 2 nM,little impact
same,impact on DMR signal of MTX in HT29,[1]; MTX at 16 micromolar,little impact
same,impact on DMR signal of EGF in A431,[2]; EGF at 32 nM,little impact
O=C(O)c1cc(N(Cc2ccccc2O)Cc2cc(O)ccc2O)ccc1O [Lavendustin A],strength as EGFR inhibitor,EGFR [4],weak EGFR inhibitor
VEGF,DMR signal triggered,HT29 cells,very small DMR signal
"6H-Indeno[1,2-e]tetrazolo[1,5-b][1,2,4]triazin-6-one & 10H-Indeno[2,1-e]tetrazolo[1,5-b][1,2,4]triazin-10-one [dual PDK1/AKT/Flt1 pathway inhibitor]",effect on early P-DMR event of the EGF response in HT29,"EGF response in HT29; EGF at 2 nM, early P-DMR",almost completely attenuated
same,effect on late P-DMR event of the EGF response in HT29,"EGF response in HT29; EGF at 2 nM, late P-DMR",almost completely attenuated
same,effect on early P-DMR event in the EGF response in A431,"[2]; EGF at 32 nM, early P-DMR",almost completely attenuated
"C[C@@H](N)[C@H]1CC[C@H](C(=O)Nc2ccncc2)CC1 [Compound Y-27632, reference compound]",attenuation of FRET signal for VEGFR2 tyrosine kinase,VEGFR2 (KDR); concentration not given,significantly attenuated
"CN[C@@H]1C[C@H]2O[C@@](C)([C@@H]1OC)n1c3ccccc3c3c4c(c5c6ccccc6n2c5c31)C(=O)NC4 [staurosporine, reference compound]",inhibition of FRET signal of VEGFR1 tyrosine kinase,VEGFR1 (FLT1); at 10 micromolar,completely inhibited
"CCCCCCc1csc2c(CCCCCC)c(C(=O)O)sc12 [Compound J, 3,6-Dihexyl-thieno[3,2-b]thiophene-2-carboxylic acid]",inhibition of FRET signal of VEGFR1 tyrosine kinase,VEGFR1 (FLT1); [5],less potent than the others
same,inhibition of FRET signal of VEGFR2 tyrosine kinase,VEGFR2 (KDR),less potent than the others
same,inhibition of FRET signal of EGFR tyrosine kinase,EGFR [3],less potent than the others
CCCCCCCCCCc1csc2c(CCCCCC)c(C(=O)O)sc12 [I],"modulation of NT response in HT29, P-DMR","NT response in HT29; NT at 2 nM, P-DMR 50 min after NT stimulation",−106%
same,"modulation index score, NT in HT29 P-DMR","NT response in HT29; score = modulation percentage/10, 6th coordinate",−10.6
same,"modulation of EGF response in HT29, early P-DMR","EGF response in HT29; EGF at 2 nM, early P-DMR ~5 min after EGF stimulation",−70%
same,"modulation of EGF response in HT29, late P-DMR","EGF response in HT29; EGF at 2 nM, late P-DMR ~50 min after EGF stimulation",−100%
same,"modulation index score, EGF in HT29 early P-DMR","EGF response in HT29; score = modulation percentage/10, 3rd coordinate",−7
same,"modulation index score, EGF in HT29 late P-DMR","EGF response in HT29; score = modulation percentage/10, 4th coordinate",−10
same,"modulation of MTX response in HT29, P-DMR","[1]; MTX at 16 micromolar, P-DMR 50 min after MTX stimulation",−60%
same,"modulation index score, MTX in HT29 P-DMR","[1]; score = modulation percentage/10, 5th coordinate",−6
same,"modulation of EGF response in A431, N-DMR","[2]; EGF at 32 nM, N-DMR ~30 min after EGF stimulation",−65%
same,"modulation of EGF response in A431, early P-DMR","[2]; EGF at 32 nM, early P-DMR ~5 min after EGF stimulation",−60%
same,"modulation index score, EGF in A431 N-DMR","[2]; score = modulation percentage/10, 2nd coordinate",−6.5
"Cc1csc2c1sc1cc(C(=O)O)sc12 [Compound K, 5-methyldithieno[3,2-b:2′3′-d] thiophene-2-carboxyl acid]",inhibition of FRET signal of VEGFR1 tyrosine kinase,VEGFR1 (FLT1); [5],less potent than the others
same,inhibition of FRET signal of VEGFR2 tyrosine kinase,VEGFR2 (KDR),less potent than the others
same,inhibition of FRET signal of EGFR tyrosine kinase,EGFR [3],less potent than the others
"O=C1Nc2ccc(Br)cc2/C1=C/c1cc2c([nH]1)CCCC2 [VEGFR2 tyrosine kinase inhibitor II, (Z)-5-Bromo-3-(4,5,6,7-tetrahydro-1H-indol-2-ylmethylene)-1,3-dihydroindol-2-one]",impact on DMR signal of NT in HT29,NT response in HT29; NT at 2 nM,little impact
same,impact on DMR signal of EGF in HT29,EGF response in HT29; EGF at 2 nM,little impact
same,impact on DMR signal of MTX in HT29,[1]; MTX at 16 micromolar,little impact
same,impact on DMR signal of EGF in A431,[2]; EGF at 32 nM,little impact
COc1cc2ncnc(Nc3cccc(Cl)c3)c2cc1OC [AG1478],impact on DMR signal of NT in HT29,NT response in HT29; NT at 2 nM,partial inhibition
same,impact on DMR signal of MTX in HT29,[1]; MTX at 16 micromolar,partial inhibition
